From patent publication US9255103B2, “Substituted pyrazolo[1,5-a]pyrazines as mGluR5 receptor modulators” (Vanderbilt University, priority 2010, dated 2016)
Like-named read-outs stand apart in the source and are kept apart here.

Columns and labels:
human mGluR5a receptor = human mGluR5a receptor (Homo sapiens, UniProt P41594); test: Cell-based functional Ca2+ mobilization assay (FDSS), potentiation of glutamate EC20 response in H10H cell line; conditions: for Emax: percent of maximal glutamate response, human mGluR5 HEK cells; for pEC50 / EC50: HEK cells transfected with human mGluR5 (H10H), presence of glutamate EC20; for pEC50: concentration in mol/L; for EC50: read-out: EC50
Sequence of human mGluR5a receptor (P41594 21-1180 isoform P41594-2 limits assumed): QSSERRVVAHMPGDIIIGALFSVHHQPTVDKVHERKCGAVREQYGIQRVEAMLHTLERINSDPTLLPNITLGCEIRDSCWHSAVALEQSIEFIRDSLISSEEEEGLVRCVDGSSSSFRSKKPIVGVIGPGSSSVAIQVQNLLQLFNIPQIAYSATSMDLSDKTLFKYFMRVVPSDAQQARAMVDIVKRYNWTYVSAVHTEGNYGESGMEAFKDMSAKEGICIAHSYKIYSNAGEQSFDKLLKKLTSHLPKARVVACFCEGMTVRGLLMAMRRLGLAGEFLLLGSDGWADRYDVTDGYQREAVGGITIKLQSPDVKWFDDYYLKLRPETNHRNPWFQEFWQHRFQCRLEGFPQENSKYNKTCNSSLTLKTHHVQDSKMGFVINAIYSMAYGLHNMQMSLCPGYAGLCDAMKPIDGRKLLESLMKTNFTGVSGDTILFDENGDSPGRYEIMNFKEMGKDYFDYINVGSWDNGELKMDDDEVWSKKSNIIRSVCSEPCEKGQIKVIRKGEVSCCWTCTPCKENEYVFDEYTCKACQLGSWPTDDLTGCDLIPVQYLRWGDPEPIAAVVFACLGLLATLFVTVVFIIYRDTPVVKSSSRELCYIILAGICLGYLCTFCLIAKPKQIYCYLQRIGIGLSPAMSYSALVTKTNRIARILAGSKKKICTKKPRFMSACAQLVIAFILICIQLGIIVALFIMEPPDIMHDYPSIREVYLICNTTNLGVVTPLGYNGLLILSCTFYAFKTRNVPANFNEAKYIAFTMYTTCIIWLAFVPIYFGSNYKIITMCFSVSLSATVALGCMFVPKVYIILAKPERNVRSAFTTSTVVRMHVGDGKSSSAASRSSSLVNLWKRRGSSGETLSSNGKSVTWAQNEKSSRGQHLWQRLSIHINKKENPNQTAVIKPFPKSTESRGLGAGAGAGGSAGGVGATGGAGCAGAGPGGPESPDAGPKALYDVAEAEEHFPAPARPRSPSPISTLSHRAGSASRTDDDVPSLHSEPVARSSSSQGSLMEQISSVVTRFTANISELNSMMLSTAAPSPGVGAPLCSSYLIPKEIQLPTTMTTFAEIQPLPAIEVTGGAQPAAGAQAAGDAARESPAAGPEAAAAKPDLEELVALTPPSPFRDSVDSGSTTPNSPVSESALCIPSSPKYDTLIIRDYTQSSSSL
Protocol: Human embryonic kidney (HEK) cells transfected with rat mGluR5 were plated in clear bottom assay plates for assay in a Functional Drug Screening System (FDSS). In the alternative assay, HEK cells transfected with human mGluR5 (H10H cell line) were plated for assay in the FDSS. […] The cells were loaded with a Ca^2+-sensitive fluorescent dye (e.g., Fluo-4), and the plates were washed and placed in the FDSS instrument. After establishment of a fluorescence baseline for twelve seconds, the compounds of the present invention were added to the cells, and the response in cells was measured. Alternatively, in various further aspects, after establishment of a fluorescence baseline for about three seconds, the compounds of the present invention were added to the cells, and the response in cells was measured. Five minutes later, an mGluR5 agonist (e.g., glutamate, 3,5-dihydroxyphenylglycine, or quisqualate) was added to the cells, and the response of the cells was measured.
The above described assay operated in two modes. In the first mode, a range of concentrations of the present compounds were added to cells, followed by a single fixed concentration of agonist. If a compound acted as a potentiator, an EC50 value for potentiation and a maximum extent of potentiation by the compound at this concentration of agonist was determined by non-linear curve fitting. In the second mode, several fixed concentrations of the present compounds were added to various wells on a plate, followed by a range of concentrations of agonist for each concentration of present compound; the EC50 values for the agonist at each concentration of compound were determined by non-linear curve fitting. A decrease in the EC50 value of the agonist with increasing concentrations of the present compounds (a leftward shift of the agonist concentration-response curve) is an indication of the degree of mGluR5 potentiation at a given concentration of the present compound. An increase in the EC50 value of the agonist with increasing concentrations of the present compounds (a rightward shift of the agonist concentration-response curve) is an indication of the degree of mGluR5 antagonism at a given concentration of the present compound. The second mode also indicates whether the present compounds also affect the maximum response to mGluR5 to agonists.
The mGluR5 activity was determined using the metabotropic glutamate receptor activity assays in human embryonic kidney cells as described herein, wherein the human embryonic kidney cells were transfected with human mGluR5. The compounds in Table 1 were synthesized with methods identical or analogous to those shown herein. The requisite starting materials were commercially available, described in the literature, or readily synthesized by one skilled in the art of organic synthesis.
Human mGluR5a cDNA in pCMV6-XL6 mammalian expression plasmid was purchased from OriGene Technologies, Inc. (catalogue number SC326357) and subcloned into pcDNA3.1(−). Human embryonic kidney (HEK)293A cells were then transfected with human mGluR5a pcDNA3.1(−) using LipofectAmine2000 (Invitrogen) and monoclones were selected and tested for functional response using a Ca^2+ mobilization assay. Monoclones were named for the species (“H” for human) plus the location on the plate (e.g. “10H”).
HEK cells transfected with the human mGluR5a receptor (H10H cell line) were plated at 15,000 cells/well in clear-bottomed poly-D-lysine-coated assay plates (BD Falcon) in glutamate-glutamine-free growth medium and incubated overnight at 37° C. and 5% CO2. The following day, the growth medium was removed and the cells were washed with assay buffer containing 1× Hank's balanced salt solution (Invitrogen, Carlsbad, Calif.), 20 mM HEPES, 2.5 mM probenecid, pH 7.4 and left with 20 μL of this reagent.

male Sprague-Dawley rats = test: Reversal of amphetamine-induced hyperlocomotion in rats; assay type: in vivo, rat; conditions: oral gavage, doses as in FIG. 4; amphetamine sulfate 1 mg/kg sc; data only in FIG. 4
Protocol: Locomotor activity was assessed as mean distance traveled (cm) in standard 16×16 photocell testing chambers measuring 43.2 cm (Length)×43.2 cm (Width)×30.5 cm (Height) (Med Associates, St. Albans, Vt.). Animals were habituated to individual activity chambers for at least 30 min prior to drug administration. Following administration of drug or vehicle, activity was recorded for a 90 minute time period. Data was expressed as the mean (±SEM) distance traveled recorded in 5 min intervals over the test period. The data was analyzed using repeated measures analysis of variance (ANOVA) followed by post-hoc testing using Dunnett's test, when appropriate. A difference was considered significant when p≦0.05. […]
The animals were habituated in Smart Open Field locomotor activity test chambers (Hamilton-Kinder, San Diego, Calif.) with 16×16 photobeams to automatically record locomotor activity for 30 min and then dosed with vehicle or test compound. […] At 60 min, all rats were injected subcutaneously with 1 mg/kg amphetamine or vehicle and then monitored for an additional 60 min. Animals are monitored for a total of 120 minutes. Data are expressed as changes in ambulation defined as total number of beam breaks per 5 min periods.
The data for the dose-response studies were analyzed by a between-group analysis of variance. […]

[1] = HEK293, maximum average response at a single concentration, read-out: Emax
[2] = maximum average response at a single concentration

Compound	Emax (human mGluR5a receptor; [1]) [%]	pEC50 (human mGluR5a receptor)	EC50 (human mGluR5a receptor) [µM]	melting point [°C]	Emax (human mGluR5a receptor; [2]) [%]	reversal of amphetamine-induced hyperlocomotion (male Sprague-Dawley rats)
N#Cc1cc(C(=O)N2CCn3nc(COc4ccccc4)cc3C2)ccc1F [Compound 28]	81	5.78	1.66	133.3		
O=C(c1ncccc1Cl)N1CCn2nc(COc3ccccc3)cc2C1 [Compound 29]	47	<5.00	> 10	60		
N#Cc1cccc(C(=O)N2CCn3nc(COc4cccc(F)c4)cc3C2)c1 [Compound 30]	59	6.48	0.331	101.5		
N#Cc1cc(C(=O)N2CCn3nc(COc4cccc(F)c4)cc3C2)ccc1F [Compound 33]	71	5.98	1.05	57.1		
Cc1cnc(C(=O)N2CCn3nc(COc4cccc(F)c4)cc3C2)cn1 [Compound 35]	36	<4.52	> 30.2	105.5		
O=C(c1ccnnc1)N1CCn2nc(COc3cccc(F)c3)cc2C1 [Compound 36]	39	<5.00	> 10	282.6		
O=C(c1cccc(F)c1)N1CCn2nc(COc3ccc(F)cc3)cc2C1 [Compound 39]	55	6.68	0.209	> 300		
CC1Cn2nc(COc3ccccc3)cc2CN1C(=O)c1ccc(F)cc1 (centres unmarked) [Compound 45]		6.62	0.24	53.8	75	
O=C(c1ccc(F)cc1)N1CCn2nc(COc3ccccc3)c(Cl)c2C1 [Compound 55]	23	5.53	2.95	136		
O=C(c1ccc(F)cc1)N1CCn2nc(COc3ccccc3)cc2C1 [FPPPM, (4-fluorophenyl)(2-(phenoxymethyl)-6,7-dihydropyrazolo[1,5-a]pyrazin-5(4H)-yl)methanone]						reversal of amphetamine-induced hyperlocomotion

The next lines start with results.

Emax (human mGluR5a receptor; [1]) [%]	pEC50 (human mGluR5a receptor)	EC50 (human mGluR5a receptor) [µM]	melting point [°C]	Emax (human mGluR5a receptor; [2]) [%]	Compound	reversal of amphetamine-induced hyperlocomotion (male Sprague-Dawley rats)
54	6.77	0.17	76.8		N#Cc1cc(F)cc(C(=O)N2CCn3nc(COc4cccc(F)c4)cc3C2)c1 [Compound 31]	
23	5.75	1.78	> 300		N#Cc1ccc(C(=O)N2CCn3nc(COc4cccc(F)c4)cc3C2)cc1F [Compound 32]	
72	6.25	0.562	88.8		CC1CN(C(=O)c2cccc(C#N)c2)Cc2cc(COc3ccccc3)nn21 (centres unmarked) [Compound 43]	
	<4.52	> 30.2	> 300	35	CC1Cn2nc(COc3ccccc3)cc2CN1C(=O)c1ccc(F)cc1 (centres unmarked) [Compound 46]	
52	5.56	2.75	> 300		CC1Cn2nc(COc3ccccc3)cc2CN1C(=O)c1cccc(C#N)c1 (centres unmarked) [Compound 49]	
	6.36	0.437	53.9	59	CC1Cn2nc(COc3ccccc3)cc2CN1C(=O)c1cccc(C#N)c1 (centres unmarked) [Compound 50]	
44	5.52	3.02	158.5		Cc1c(COc2ccccc2)nn2c1CN(C(=O)c1ccc(F)cc1)CC2 [Compound 57]	
